Test systems include ACHN renal; COLO 205 colon; HS 578T breast; K-562 leukemia; M14 melanoma; MALME-3M melanoma; MDA-MB-435; RPMI-8226 leukemia; RXF 393 renal; CCRF-CEM leukemia.
Assay in all cases: DTP human tumour cell line panel, 48 h

The structures appear in SMILES notation. Values joined by “and” are separate entries in the source; they are usually repeats but may differ in a detail not shown here. Equal values may be shown once.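 All cell lines were grown in 96-well plates and treated with compound for 48 hours. Here, GI50 denotes the concentration required for 50% inhibition of growth. TGI denotes the concentration required for complete inhibition of growth.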 Where a SMILES comes first, the peptide text is derived from it. The star is where a group is joined. Boc = CC(C)(C)OC(=O)*

By TGI is commonly meant the concentration at which net growth stops. Low values mean greater sensitivity of the cells, high ones lower sensitivity of the cells. For the compound `C=C1CCCCCCCCCCC1S(=O)c1ccccc1` (stereo not given), the TGI in the experiment with ACHN renal was > 100 µM; in the experiment on COLO 205 colon it was 57.3 µM; with HS 578T breast, > 100 µM; in the experiment on K-562 leukemia, 82.6 µM; in the experiment on M14 melanoma it was 92.2 µM; with MALME-3M melanoma, > 100 µM. The TGI in the experiment with MDA-MB-435 stood at 59.3 µM; in the experiment on RPMI-8226 leukemia it was 54.4 µM; in the experiment on RXF 393 renal it was 64.5 µM.
Consider `O=C1CSC2(CCN(CCCN3c4ccccc4Sc4ccc(Cl)cc43)CC2)N1`, for which the TGI in the experiment on ACHN renal was 23.7 µM; in the experiment with COLO 205 colon, 22.5 µM; in the experiment with HS 578T breast it was 51.9 µM; in the experiment on K-562 leukemia, 16.8 µM; in the experiment with M14 melanoma, 20.6 µM; with MALME-3M melanoma, 24.4 µM. Also, the TGI in the experiment with MDA-MB-435 was 23.5 µM; in the experiment with RPMI-8226 leukemia, 18.3 µM; in the experiment on RXF 393 renal, 16.3 µM.
`O=C(CSC1=NCCN1)c1ccccc1`: the TGI in the experiment on ACHN renal, with COLO 205 colon, in the experiment with HS 578T breast, with K-562 leukemia, in the experiment with M14 melanoma and with MALME-3M melanoma was > 100 µM each time. In addition, the TGI with MDA-MB-435, with RPMI-8226 leukemia and in the experiment with RXF 393 renal was > 100 µM in each case.
Take `C=C[C@H]1CN2CC[C@H]1C[C@@H]2[C@@H](O)c1ccnc2ccccc12`: the TGI with ACHN renal is > 100 µM; in the experiment with COLO 205 colon it was > 100 µM; in the experiment on HS 578T breast, 8.28 µM; with K-562 leukemia, > 100 µM; in the experiment with M14 melanoma it was > 100 µM; with MALME-3M melanoma, > 100 µM. For the same compound, the TGI with MDA-MB-435 was > 100 µM; with RPMI-8226 leukemia, 90 µM; with RXF 393 renal it was > 100 µM.
For `O=S1(=O)c2ccccc2N2CCCc3cc(Cl)cc1c32`, the TGI in the experiment with ACHN renal is > 100 µM; in the experiment with CCRF-CEM leukemia it was > 100 µM; with COLO 205 colon, > 100 µM; in the experiment with HS 578T breast, 84.7 µM; with K-562 leukemia, > 100 µM; with M14 melanoma it was > 100 µM. Also, the TGI with MALME-3M melanoma was > 100 µM; in the experiment with MDA-MB-435, > 100 µM; in the experiment on RXF 393 renal, 51.3 µM.
As usually defined, the GI50 is the concentration at which growth is held to half of that of the control. Regarding `COC1C(O)=C2C(=O)OC(C)(O)/C=C/C=C\C=C/C=C/C(c3ccccc3)NC(=O)/C=C/C=C/C=C/C=C/C2(C)C1O` (stereo not given), the TGI in the experiment on ACHN renal was 0.0323 µM and 0.119 µM; in the experiment on COLO 205 colon, 0.0166 µM; in the experiment on HS 578T breast, 0.192 µM and 0.246 µM; in the experiment on K-562 leukemia it was > 100 µM; with M14 melanoma it was 0.447 µM and 0.19 µM; with MALME-3M melanoma, 0.16 µM. Besides, the values for the TGI in the experiment with MDA-MB-435 and in the experiment with RXF 393 renal were 0.142 µM and 0.0425 µM, respectively. Moreover, the GI50 in the experiment on CCRF-CEM leukemia was < 0.001 µM; in the experiment with HS 578T breast it was 0.0115 µM; in the experiment with M14 melanoma, 0.0536 µM.
As to `COc1ccc2nc3c([N+](=O)[O-])ccc4c3c(c2c1)NCCN4C`, the TGI in the experiment with ACHN renal was 5.92 µM; with CCRF-CEM leukemia it was > 100 µM; with COLO 205 colon, 2.54 µM; in the experiment with HS 578T breast, 5.21 µM; in the experiment on K-562 leukemia, > 100 µM; with M14 melanoma, 2.8 µM. The TGI is 2.6 µM in the experiment on MALME-3M melanoma, 2.4 µM in the experiment on MDA-MB-435 and 0.878 µM in the experiment with RXF 393 renal.
Consider `CC[C@H]1C=CCC[C@@]2(C[C@@H]3CC[C@@H]4[C@H](C(=O)OCCCCCCCCCCCCCCCC(=O)N(CCCN)C[C@@H](O)CCN)[C@]5(CCC[C@@H](C)O5)NC(=[N+]34)N2)O1`, for which the TGI is > 4.73 µM in the experiment on ACHN renal; 1.65 µM in the experiment with COLO 205 colon; 2.88 µM in the experiment with HS 578T breast; 0.565 µM with K-562 leukemia; 0.0599 µM in the experiment with M14 melanoma; 1.26 µM in the experiment on MALME-3M melanoma. Moreover, the TGI in the experiment with MDA-MB-435 was 0.469 µM; with RPMI-8226 leukemia, 0.755 µM; in the experiment with RXF 393 renal, 2.38 µM.
For the compound `COC(=O)CC1C2CC3C(C2=O)C13` (stereo not given), the TGI with ACHN renal, with CCRF-CEM leukemia, with COLO 205 colon, in the experiment with HS 578T breast, with K-562 leukemia and in the experiment with M14 melanoma was > 100 µM throughout. Besides, the TGI in the experiment on MALME-3M melanoma, in the experiment on MDA-MB-435 and in the experiment with RXF 393 renal was > 100 µM in each case.
As to `CC(NC(=O)C(NC(=O)OC(C)(C)C)C(C)C)C(=O)NCC(=O)O` (stereo not drawn) (Boc-Val-Ala-Gly-OH; configuration not given here), the TGI in the experiment with ACHN renal, in the experiment with COLO 205 colon, in the experiment with HS 578T breast, with K-562 leukemia, in the experiment on M14 melanoma and with MALME-3M melanoma was > 100 µM each time. Besides, the TGI in the experiment on MDA-MB-435, with RPMI-8226 leukemia and in the experiment with RXF 393 renal was > 100 µM in each case.
Regarding `CCOC(=O)/C(=C\c1ccc(CO)o1)P(=O)(OCC)OCC`, the TGI in the experiment on ACHN renal is > 100 µM; in the experiment with COLO 205 colon it was 51 µM; with HS 578T breast, > 100 µM; with M14 melanoma it was 98 µM; in the experiment with MALME-3M melanoma, 50 µM; with MDA-MB-435, 86.9 µM. Moreover, the TGI stood at 91.4 µM in the experiment on RPMI-8226 leukemia and 71.1 µM with RXF 393 renal.
